Here are results for 1 molecule from patent US20220000117A1, “METHOD FOR CONTROLLING DISEASES IN SMALL GRAIN CEREALS, SEED OF SMALL GRAIN CEREALS, AND METHOD FOR SUPPRESSING LODGING DAMAGE IN SMALL GRAIN CEREALS” (KUMIAI CHEMICAL INDUSTRY CO., LTD., priority 2019, published 2022).

One assay relates to powdery mildew. Kind of assay: Test Example 1: control test of wheat powdery mildew, field, wheat variety Haruyutaka. It counts as in vivo, Blumeria graminis. Particulars: for Degree of Disease Occurrence / Disease Leaf Rate (%): flag leaves, 79 days after seeding. On the procedure: Seed of wheat (variety: Haruyutaka) sterilized in advance with commercial Benlate T wettable powder 20 (“Benlate” is a registered trademark) was used. In Example 1, seed having a mass of 1 kg was mixed into 100 ml of suspension water containing 5 g of dichlobentiazox, air-dried, and then, stripe-sown in a field with a furrow width of 30 cm and a ratio of 163 kg/ha (417 seeds/m^2). In contrast, in Comparative Example 1, seed which had not treated with dichlobentiazox was sown in a field in the same manner, and a spray solution corresponding to that obtained by suspending 500 g of dichlobentiazox in 200 liters of water per 1 ha was sprayed on foliage of wheat three times, during an ear emergence period (63 days after seeding), a flowering period (70 days after seeding), and a flowering end period (77 days after seeding). Similarly, in place of 500 g of dichlobentiazox in Comparative Example 1, 250 g of azoxystrobin (commercial Amistar 20 flowable was used. “Amistar” is a registered trademark) was used in Comparative Example 2, and 125 g of propiconazole (commercial Tilt emulsifiable concentrate 25 was used, “Tilt” is a registered trademark) was used in Comparative Example 3. The presence or absence of disease occurrence and a lesion area ratio of powdery mildew in flag leaves of 30 stems were investigated 79 days after seeding according to the criteria in Table 1, and a disease leaf rate and the degree of disease occurrence were calculated by the following calculation formula (1).
(§1) Degree of Disease Occurrence=Σ(Index×Number of Leaves of Index)/(4×Number of Investigated Leaves)×100 (1)

Another assay concerns septoria leaf blotch. Kind of assay: Test Example 7: control test of septoria leaf blotch of wheat, field, wheat variety TRAPEZ. It counts as in vivo, Septoria tritici. As to conditions: for Degree of Disease Occurrence: flag leaves, 219 days after seeding. On the procedure:
as §1
Seed of wheat (variety: TRAPEZ) was used. On seed having a mass of 1 kg, 20 ml of suspension water containing 0.5 g or 5 g of dichlobentiazox or isotianil was sprayed. In Examples 16, 17, and 18, the seed treated with the chemical was stripe-sown with a ratio of 100 kg/ha. In contrast, in Comparative Example 17, seed which had not treated with dichlobentiazox or isotianil was sown in a field in the same manner, and a spray solution corresponding to that obtained by suspending 750 g of chlomthalonil (commercial FUNGISTOP was used, “FUNGISTOP” is a registered trademark) in 200 liters of water per 1 ha was sprayed on foliage of wheat 154 days and 184 days after seeding. The severity of disease occurrence of septoria leaf blotch in flag leaves of 25 stems was investigated 219 days after seeding according to the criteria in Table 1, and the degree of disease occurrence was calculated by the above calculation formula (1).

Setting [1] is: Foliage Treatment, spray 500 g/ha three times.
[2] abbreviates: Seed Treatment 5 g/Seed 1 kg (815 g/ha).

For the molecule `O=S1(=O)N=C(OCc2snc(Cl)c2Cl)c2ccccc21` [Compound (1), Dichlobentiazox], the “disease occurrence of powdery mildew, seed treatment compared with foliage spraying of dichlobentiazox (Comparative Example 1)” value with powdery mildew (Example 1, seed treatment) is listed as “more suppressed”. Also, the “Degree of Disease Occurrence” value in the assay with powdery mildew (setting [1]) was found to be 12.6; in the assay on powdery mildew (setting [2]), 0.6; with septoria leaf blotch (Seed Treatment 0.5 g/Seed 1 kg (50 g/ha)) it was 2.8; in the assay with septoria leaf blotch (Seed Treatment 5 g/Seed 1 kg (500 g/ha)), 1.9. Also, the “Disease Leaf Rate (%)” value was 58.9% in the assay on powdery mildew (setting [1]) and 4.4% with powdery mildew (setting [2]). Besides, in the assay on powdery mildew (seed treatment), the “disease occurrence of powdery mildew, seed treatment compared with foliage spraying of azoxystrobin and propiconazole (Comparative Examples 2 and 3)” value is given as “more suppressed”. For the same molecule, the “disease occurrence of septoria leaf blotch, seed treatment compared with foliage spraying of chlorothalonil” value in the assay with septoria leaf blotch (seed treatment) is given as “more suppressed”.
